Laboratory results: US20070249637A1, “Inhibitors Of Hepatitis C Virus Protease, And Compositions And Treatments Using The Same” (priority 2004, published 2007)
Several values for one entry are separate records, joined by “and”; a condition that tells them apart may be missing. Equal entries are not always repeated. Where two headings read alike, the source gives them in different places.

Tests used:
[1] = rcm bond, 15-membered ring, DCM, 40.0 °C
[2] = molecular target: T1, full-length NS3-NS4A enzyme (Hepatitis C virus genotype 1a, UniProt P27958); experiment: HCV protease assay (continuous FRET, full-length enzyme); type: biochemical; conditions: 3 nM full-length NS3-NS4A, 3 uM depsipeptide FRET substrate S1; competitive inhibition fit
T1 construct: 3 nM full-length NS3-NS4A enzyme
Experimental: HCV protease activity and compound inhibition was monitored using a continuous, fluorescence resonance energy transfer (FRET) assay. Test compounds at various concentrations were added to assay buffer (50 mM MOPS pH 7.5, 50 mM NaCl, 20% glycerol, 0.025% Triton-X 100, 1 mM tris(2-carboxyethyl)phosphine) containing 3 uM depsipeptide FRET substrate S1 (Anaspec) (see Taliani et al. Analytical Biochemistry, 240, 60-67 (1996)) in a white, non-binding 96-well plate (Corning). The reaction was started by the addition of 3 nM full-length NS3-NS4A enzyme. The increase in fluorescence intensity following peptide cleavage was monitored using a Safire fluorescence plate reader (Tecan). The excitation and emission wavelengths were 340 nm and 500 nm, respectively. Inhibition constants (KI) were calculated by non-linear regression analysis using an equation derived for competitive inhibition.

[3] = test system: HCV dual reporter subgenomic replicon (B6b cell line); experiment: HCV dual reporter subgenomic replicon assay, Renilla luciferase (antiviral activity); type: cell-based; conditions: Hepatitis C virus, 72 h; 50% reduction of Renilla luciferase expression, 3 days incubation
Experimental: The compounds described herein were tested for antiviral activity utilizing a dual-reporter replicon assay as described in U.S. patent application Ser. No. 10/818,075 (the '075 application), filed Apr. 5, 2004. The disclosure of the '075 application is incorporated herein.
(§1) Cell-based antiviral activity was evaluated in the previously described HCV dual reporter subgenomic replicon system (the '075 application). With this system, the effects of a compound on both HCV replication and cell viability can be simultaneously determined by measuring the intracellular levels of two separate reporter proteins. The dicistronic selectable replicon contains the Renilla luciferase gene such that Renilla luciferase activity within stably-transfected cells serves as a marker of HCV replication. The firefly luciferase gene is stably integrated into and expressed by the Huh-7 host cells. Since firefly luciferase activity is dependent upon cellular transcription and translation, firefly luciferase activity serves as an indicator of cell viability.
(§2) The dual reporter selectable replicon cell line (B6b) was maintained in DMEM supplemented with 10% FBS, L-glutamine, non-essential amino acids, penicillin, streptomycin, and selection agents (200 ug/ml G418 and 6 ug/ml blastocidin). On the first day of the experiment, cells were trypsinized, washed, and diluted in medium lacking the selection agents. Cells were transferred to 96-well, black-walled, clear bottom plates at a density of 2×10^4 cells in 150 ul of medium per well. Cells were allowed to settle for 60 to 90 minutes while compounds were being prepared. Each compound was initially diluted to a 4× working stock (2.56% DMSO in tissue culture medium) that was then serially diluted nine times in half log increments in medium with 2.56% DMSO. Fifty microliters of each dilution were then added in triplicate to the plated cells in order to obtain final IX compound concentrations with 0.64% DMSO. Typical testing concentrations ranged from 320 uM to 10 nM. Control wells containing 0.64% DMSO without compound were also included on each plate.
(§3) After 3 days of incubation under humidity at 37° C. with 5% CO2, plates were microscopically examined for compound precipitation and cell death. Tissue culture medium was then aspirated and cells were lysed with 20 ul of 1× Passive Lysis Buffer (Promega, Madison, Wis.). Reporter activity was measured using a MicroBeta Jet 1450 (Perkin Elmer, Boston, Mass.) following sequential 50 ul additions of firefly and Renilla luciferase substrates as described in the manufacturers protocol (Promega). Luciferase activities were expressed as a percentage of the signals observed in the compound-free control wells. The amount of compound required to reduce Renilla luciferase expression by 50% is defined as the 50% effective concentration, or EC50. The amount of compound that reduces firefly luciferase expression by 50% is defined as the 50% cytotoxic concentration, or CC50. A therapeutic index (TI) is calculated by dividing the CC50 by the EC50.

in vitro = type: cell-based; conditions: human; 50% reduction of firefly luciferase expression, 3 days incubation; read-out: Replicon CC50
Experimental: as §1, §2, §3

T1 sequence (P27958 1027-1657): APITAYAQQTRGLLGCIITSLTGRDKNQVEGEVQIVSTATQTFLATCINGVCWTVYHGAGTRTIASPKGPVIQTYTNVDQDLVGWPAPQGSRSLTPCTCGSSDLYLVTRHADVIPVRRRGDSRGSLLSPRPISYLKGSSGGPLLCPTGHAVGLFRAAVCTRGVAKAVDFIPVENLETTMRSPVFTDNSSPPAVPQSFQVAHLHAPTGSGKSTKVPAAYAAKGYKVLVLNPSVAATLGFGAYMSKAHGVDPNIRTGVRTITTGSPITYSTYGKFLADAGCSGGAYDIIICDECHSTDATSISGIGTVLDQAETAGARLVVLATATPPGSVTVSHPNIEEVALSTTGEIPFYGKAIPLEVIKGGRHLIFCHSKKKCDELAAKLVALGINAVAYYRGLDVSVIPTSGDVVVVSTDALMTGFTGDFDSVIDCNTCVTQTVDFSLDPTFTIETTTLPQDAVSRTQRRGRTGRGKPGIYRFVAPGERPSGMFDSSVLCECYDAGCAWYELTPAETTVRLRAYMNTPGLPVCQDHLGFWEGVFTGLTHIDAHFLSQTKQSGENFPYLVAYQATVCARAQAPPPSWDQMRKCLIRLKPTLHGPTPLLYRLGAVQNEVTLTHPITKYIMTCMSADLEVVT
T1 sequence (P27958 1658-1711): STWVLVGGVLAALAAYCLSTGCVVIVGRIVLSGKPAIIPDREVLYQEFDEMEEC

Row | Compound | ring closure, isolated yield ([1]; from C=CCCCCCC(NC(=O)OC(C)(C)C)C(=O)N1C[C@H](Oc2cc(-c3ccccn3)nc3ccsc23)C[C@H]1C(=O)N[C@]1(C(=O)OC)C[C@H]1C=C, Grubbs II (0.25 equiv), 2.0 mM, 4.0 h) [%] | ring closure, isolated yield ([1]; from C=CCCCCCC(NC(=O)OC(C)(C)C)C(=O)N1CC(Oc2nc(-c3cc(C)nn3C)nc3ccsc23)CC1C(=O)NC1(C(=O)OC)CC1C=C, Grubbs II (0.15 equiv), 5.0 mM, 2.0 h) [%] | Ki [2] | EC50 [3] [nM] | CC50 at 3 days (in vitro) [nM]
1 | COC(=O)[C@@]12C[C@H]1/C=C\CCCCCC(NC(=O)OC(C)(C)C)C(=O)N1C[C@H](Oc3cc(-c4ccccn4)nc4ccsc34)C[C@H]1C(=O)N2 (some centres unmarked) | 24 |  |  |  | 
2 | COC(=O)[C@@]12C[C@H]1/C=C\CCCCC[C@H](NC(=O)OC(C)(C)C)C(=O)N1C[C@H](Oc3nc(-c4cc(C)nn4C)nc4ccsc34)C[C@H]1C(=O)N2 |  | 38 |  |  | 
3 | O=C(CC1CC1)N[C@H]1CCCCC/C=C\[C@@H]2C[C@@]2(C(=O)O)NC(=O)[C@@H]2C[C@@H](Oc3nc(-c4ccccn4)nc4ccsc34)CN2C1=O [Example 46, (2R,6S,12Z,13aS,14aR,16aS)-6-[(Cyclopropylacetyl)amino]-5,16-dioxo-2-[(2-pyridin-2-ylthieno[3,2-d]pyrimidin-4-yl)oxy]-1,2,3,6,7,8,9,10,11,13a,14,15,16,16a-tetradecahydrocyclopropa[e]pyrrolo[1,2-a][1,4]diazacyclopentadecine-14a(5H)-carboxylic acid] |  |  | 15 nM | 92 | > 320000
4 | Cc1cc(-c2nc(O[C@@H]3C[C@H]4C(=O)N[C@]5(C(=O)O)C[C@H]5/C=C\CCCCC[C@H](NC(=O)OC5CCCC5)C(=O)N4C3)c3sccc3n2)n(C)n1 [Example 58, (2R,6S,12Z,13aS,14aR,16aS)-6-{[(Cyclopentyloxy)carbonyl]amino}-2-{[2-(1,3-dimethyl-1H-pyrazol-5-yl)thieno[3,2-d]pyrimidin-4-yl]oxy}-5,16-dioxo-1,2,3,6,7,8,9,10,11,13a,14,15,16,16a-tetradecahydrocyclopropa[e]pyrrolo[1,2-a][1,4]diazacyclopentadecine-14a(5H)-carboxylic acid] |  |  | 2.3 nM | 62 | 216000
5 | Cc1cc(-c2nc(O[C@@H]3C[C@H]4C(=O)N[C@]5(C(=O)O)C[C@H]5/C=C\CCCCC[C@H](NC(=O)OC5CCC5)C(=O)N4C3)c3sccc3n2)n(C)n1 [Example 60, (2R,6S,12Z,13aS,14aR,16aS)-6-{[(Cyclobutyloxy)carbonyl]amino}-2-{[2-(1,3-dimethyl-1H-pyrazol-5-yl)thieno[3,2-d]pyrimidin-4-yl]oxy}-5,16-dioxo-1,2,3,6,7,8,9,10,11,13a,14,15,16,16a-tetradecahydrocyclopropa[e]pyrrolo[1,2-a][1,4]diazacyclopentadecine-14a(5H)-carboxylic acid] |  |  | 6.7 nM | 700 | 222000
6 | Cc1cc(-c2nc(O[C@@H]3C[C@H]4C(=O)N[C@]5(C(=O)O)C[C@H]5/C=C\CCCCC[C@H](NC(=O)OC(C)(C)C)C(=O)N4C3)c3sccc3n2)n(C)n1 [Example 61, (2R,6S,12Z,13aS,14aR,16aS)-6-[(Tert-butoxycarbonyl)amino]-2-{[2-(1,3-dimethyl-1H-pyrazol-5-yl)thieno[3,2-d]pyrimidin-4-yl]oxy}-5,16-dioxo-1,2,3,6,7,8,9,10,11,13a,14,15,16,16a-tetradecahydrocyclopropa[e]pyrrolo[1,2-a][1,4]diazacyclopentadecine-14a(5H)-carboxylic acid] |  |  | 11.3 nM | 870 | 244000
7 | Cc1cc(-c2nc(O[C@@H]3C[C@H]4C(=O)N[C@]5(C(=O)O)C[C@H]5/C=C\CCCCC[C@H](NC(=O)CC5CC5)C(=O)N4C3)c3sccc3n2)n(C)n1 [Example 63, (2R,6S,12Z,13aS,14aR,16aS)-6-[(cyclopropylacetyl)amino]-2-{[2-(1,3-dimethyl-1H-pyrazol-5-yl)thieno[3,2-d]pyrimidin-4-yl]oxy}-5,16-dioxo-1,2,3,6,7,8,9,10,11,13a,14,15,16,16a-tetradecahydrocyclopropa[e]pyrrolo[1,2-a][1,4]diazacyclopentadecine-14a(5H)-carboxylic acid] |  |  | 8.1 nM | 11 | > 320000
8 | Cc1cc(-c2nc(O[C@@H]3C[C@H]4C(=O)N[C@]5(C(=O)O)C[C@H]5/C=C\CCCCC[C@H](NC(=O)O[C@H]5CCOC5)C(=O)N4C3)c3sccc3n2)n(C)n1 [Example 65, (2R,6S,12Z,13aS,14aR,16aS)-2-{[2-(1,3-Dimethyl-1H-pyrazol-5-yl)thieno[3,2-d]pyrimidin-4-yl]oxy}-5,16-dioxo-6-({[(3S)-tetrahydrofuran-3-yloxy]carbonyl}amino)-1,2,3,6,7,8,9,10,11,13a,14,15,16,16a-tetradecahydrocyclopropa[e]pyrrolo[1,2-a][1,4]diazacyclopentadecine-14a(5H)-carboxylic acid] |  |  | 10.3 nM and 7.9 nM | 2600 | > 320000
9 | CC(C)Nc1cccc(-c2nc(O[C@@H]3C[C@H]4C(=O)N[C@]5(C(=O)O)C[C@H]5/C=C\CCCCC[C@H](NC(=O)OC(C)(C)C)C(=O)N4C3)c3sccc3n2)n1 [Example 79, (2R,6S,12Z,13aS,14aR,16aS)-6-[(Tert-butoxycarbonyl)amino]-2-({2-[6-(isopropylamino)pyridin-2-yl]thieno[3,2-d]pyrimidin-4-yl}oxy)-5,16-dioxo-1,2,3,6,7,8,9,10,11,13a,14,15,16,16a-tetradecahydrocyclopropa[e]pyrrolo[1,2-a][1,4]diazacyclopentadecine-14a(5H)-carboxylic acid] |  |  | 11.3 nM | 180 | 212000
10 | Cn1ccnc1-c1cc2nccc(O[C@@H]3C[C@H]4C(=O)N[C@]5(C(=O)O)C[C@H]5/C=C\CCCCC[C@H](NC(=O)OC(C)(C)C)C(=O)N4C3)c2s1 [Example 86, (2R,6S,12Z,13aS,14aR,16aS)-6-[(tert-butoxycarbonyl)amino]-2-{[2-(1-methyl-1H-imidazol-2-yl)thieno[3,2-b]pyridin-7-yl]oxy}-5,16-dioxo-1,2,3,6,7,8,9,10,11,13a,14,15,16,16a-tetradecahydrocyclopropa[e]pyrrolo[1,2-a][1,4]diazacyclopentadecine-14a(5H)-carboxylic acid] |  |  | 69 nM | 15000 | > 320000
11 | Cn1ccnc1-c1cc2nccc(O[C@@H]3C[C@H]4C(=O)N[C@]5(C(=O)O)C[C@H]5/C=C\CCCCC[C@H](NC(=O)OC5CCCC5)C(=O)N4C3)c2s1 [Example 89, (2R,6S,12Z,13aS,14aR,16aS)-6-{[(Cyclopentyloxy)carbonyl]amino}-2-{[2-(1-methyl-1H-imidazol-2-yl)thieno[3,2-b]pyridin-7-yl]oxy}-5,16-dioxo-1,2,3,6,7,8,9,10,11,13a,14,15,16,16a-tetradecahydrocyclopropa[e]pyrrolo[1,2-a][1,4]diazacyclopentadecine-14a(5H)-carboxylic acid] |  |  | 14 nM and 13 nM | 500 | > 320000
12 | Cn1ccnc1-c1cc2nccc(O[C@@H]3C[C@H]4C(=O)N[C@]5(C(=O)O)C[C@H]5/C=C\CCCCC[C@H](NC(=O)CC5CC5)C(=O)N4C3)c2s1 [Example 91, (2R,6S,12Z,13aS,14aR,16aS)-6-[(Cyclopropylacetyl)amino]-2-{[2-(1-methyl-1H-imidazol-2-yl)thieno[3,2-b]pyridin-7-yl]oxy}-5,16-dioxo-1,2,3,6,7,8,9,10,11,13a,14,15,16,16a-tetradecahydrocyclopropa[e]pyrrolo[1,2-a][1,4]diazacyclopentadecine-14a(5H)-carboxylic acid] |  |  | 91 nM and 70 nM | 290 | > 320000
